Activity calls are given as the source filed them.
What was measured:
Cytochrome P450 3A4 = Cytochrome P450 3A4 (Homo sapiens, UniProt P08684); conditions: Potency;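 note: confirmatory qHTS run detecting inhibitors and substrates of CYP3A4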
Cytochrome P450 2C9 = Cytochrome P450 2C9 (Homo sapiens, UniProt P11712); conditions: Potency
[1] = A Cell Based Secondary Assay To Explore Cytotoxicity of Compounds that Sensitize Mycobacterium Tuberculosis to Beta-Lactam Antibiotics.; format: functional
H9c2 = assay: cells; format: functional, cell-based; conditions: Rattus norvegicus, H9c2, Myocardium;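 note: confirmatory concentration-response retest of ultra-high-throughput screening hits for modulation of myocardial damage; cell death induced by hydrogen peroxide oxidative stress; compound pretreatment for 60 min then peroxide exposure for 2 h; potency is for protecting the cells against peroxide damage rather than for killing them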
[2] = target: T1, Alkaline phosphatase, tissue-nonspecific isozyme (Homo sapiens, UniProt P05186)
T1 sequence (P05186 whole entry): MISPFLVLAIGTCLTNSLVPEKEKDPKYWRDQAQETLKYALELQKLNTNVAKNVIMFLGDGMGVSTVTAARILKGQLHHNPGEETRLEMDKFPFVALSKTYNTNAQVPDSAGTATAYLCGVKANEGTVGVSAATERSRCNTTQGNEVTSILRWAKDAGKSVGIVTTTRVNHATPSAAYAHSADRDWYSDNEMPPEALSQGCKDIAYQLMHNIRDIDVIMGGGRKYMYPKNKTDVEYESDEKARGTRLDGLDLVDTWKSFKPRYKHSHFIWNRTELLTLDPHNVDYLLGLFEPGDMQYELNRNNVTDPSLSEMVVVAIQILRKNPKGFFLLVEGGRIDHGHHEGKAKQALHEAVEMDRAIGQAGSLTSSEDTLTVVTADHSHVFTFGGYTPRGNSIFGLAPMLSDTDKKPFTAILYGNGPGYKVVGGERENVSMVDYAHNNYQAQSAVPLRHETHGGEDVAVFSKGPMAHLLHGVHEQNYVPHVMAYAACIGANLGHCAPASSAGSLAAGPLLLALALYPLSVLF

[3] = A cytotoxicity screen of small molecule inhibitors of the PhoP region in Salmonella typhi identified in the primary screen. [Related pubchem assays: 1850, 1864, 1985 ]; format: functional
Wee1-like protein kinase = Wee1-like protein kinase (Homo sapiens, UniProt P30291); assay: G2/M cell cycle arrest in HeLa, late-stage follow-up, mechanism study for Wee1 degradation inhibitor project, FACS, panel member Wee1 Degradation (AID 2088)
[4] = target: G2/mitotic-specific cyclin-B1 (Homo sapiens, UniProt P14635); assay: G2/M cell cycle arrest in HeLa, late-stage follow-up, mechanism study for Wee1 degradation inhibitor project, FACS, panel member Cyclin B Degradation (AID 2088)
[5] = target: T2, Polyadenylate-binding protein 1 (Homo sapiens, UniProt P11940); assay: PABP poly(A) RNA binding inhibitors, primary screen, biochemical, fluorescence polarization, uHTS (AID 2014)
[6] = target: T3, Eukaryotic translation initiation factor 4H (Homo sapiens, UniProt Q15056); assay: human eIF4H binding inhibitors, primary screen, translation initiation inhibitor project, biochemical, uHTS, fluorescence polarization (AID 2012)
[7] = target: Transitional endoplasmic reticulum ATPase (Homo sapiens, UniProt P55072, C522A); assay: C522A mutant p97 ATPase inhibitors, dose response, counter-screen for p97 inhibitor project, biochemical, luminescence (AID 1544)
[8] = target: Transitional endoplasmic reticulum ATPase (Homo sapiens, UniProt P55072); assay: p97 ATPase inhibitors, dose response, biochemical (AID 1534)
[9] = target: T4, Heat shock factor protein 1 (Mus musculus, UniProt P38532); assay: inhibition of MG132-induced HSE-luciferase signal, confirmation, cell-based, NIH3T3, luminescence, dose retest (AID 2382); format: functional;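 note: NIH3T3 fibroblasts with HSF1-driven luciferase reporter stressed by proteasome inhibitor MG132; luminescence from HSF1-driven luciferase expression after 8 hours of MG132 stress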
T4 sequence (P38532 whole entry): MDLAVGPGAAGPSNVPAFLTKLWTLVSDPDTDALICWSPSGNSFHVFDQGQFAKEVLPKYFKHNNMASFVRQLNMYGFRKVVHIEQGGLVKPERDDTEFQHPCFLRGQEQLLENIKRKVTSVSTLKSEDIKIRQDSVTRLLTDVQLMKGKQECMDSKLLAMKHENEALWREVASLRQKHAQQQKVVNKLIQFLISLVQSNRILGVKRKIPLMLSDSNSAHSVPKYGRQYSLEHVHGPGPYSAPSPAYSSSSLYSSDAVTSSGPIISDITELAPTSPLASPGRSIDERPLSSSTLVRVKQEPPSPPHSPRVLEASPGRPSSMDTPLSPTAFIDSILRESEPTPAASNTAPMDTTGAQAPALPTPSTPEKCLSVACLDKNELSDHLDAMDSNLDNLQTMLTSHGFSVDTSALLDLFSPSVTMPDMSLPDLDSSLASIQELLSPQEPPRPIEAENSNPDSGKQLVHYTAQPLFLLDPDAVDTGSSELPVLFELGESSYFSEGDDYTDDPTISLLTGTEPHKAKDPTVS

[10] = non-specific cell cytotoxicity, dose response, cytotoxicity control for PAX8 inhibitor project, plate reader, dry powder samples (AID 743021); format: functional, cell-based
[11] = target: Luciferin 4-monooxygenase (Photinus pyralis, UniProt P08659); assay: firefly luciferase enzyme inhibitors, dose response, biochemical, luminescence (AID 1891)
Paired box protein Pax-8 = Paired box protein Pax-8 (Homo sapiens, UniProt Q06710); assay: inhibitors of PAX8-driven TPO luciferase reporter, dose response, RMG-I cells, cherry-pick (AID 687027); format: functional, cell-based;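 note: luciferase reporter driven by Pax8 target thyroperoxidase promoter measured by SteadyGlo luminescence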
[12] = Luminescence Cell-Based Dose Confirmation HTS to Identify Inhibitors of Platelet Dense Granule Release. [Related pubchem assays: 1663 (Primary HTS), 1678 (Summary of Project)]; format: functional
[13] = target: Cyclin-dependent kinase 5/CDK5 activator 1 (Homo sapiens, UniProt Q00535); assay: CDK5/p35 kinase inhibitors, dose response, biochemical, cherry-picked samples, set 2 (AID 504545)
[14] = inhibition of ADP-Glo detection reagents, dose response, artefact control for CDK5 inhibitor project, biochemical, luminescence, cherry-picked samples, set 2 (AID 504546); format: functional
[15] = cytotoxicity in HEK-293T cells, dose response, cytotoxicity control for TCR NF-kB inhibitor project, luminescence, T-cell screen hits (AID 489026); format: functional, cell-based;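 note: cells exposed to compound about 14 hours before the viability readout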
Aminopeptidase N = Aminopeptidase N (Plasmodium falciparum FcB1/Columbia, UniProt O96935); assay: P. falciparum M1AAP inhibitors, biochemical, fluorogenic H-Leu-NHMec substrate, 1536-well (AID 1445); parameters: species or system Plasmodium falciparum 3D7, 3D7
[16] = target: Acyl-homoserine lactone acylase PvdQ (Pseudomonas aeruginosa (strain LESB58), UniProt Q9I194); assay: P. aeruginosa PvdQ acylase inhibitors, dose response, biochemical, fluorescence, plate reader and imaging, cherry-picks (AID 493231)
[17] = target: T4, Heat shock factor protein 1; assay: HSF1 potentiators in luciferase reporter cells, confirmation, cell-based, NIH3T3, luminescence, dose retest (AID 435004); format: functional;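 note: stress induced by proteasome inhibitor MG132 added 30 min after compound; luciferase reporter driven by HSF1 response element in NIH3T3 cells; actives raise luminescence as potentiators of the MG132 stress response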
[18] = target: Neurotensin receptor type 1 (Homo sapiens, UniProt P30989); format: functional;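 note: Image-based confirmatory dose-response assay measuring agonist activity at NTR1; NTR1-expressing U2OS osteosarcoma cells imaged for beta-arrestin GFP spot formation; agonist potency where compounds increase beta-arrestin recruitment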
[19] = target: G-protein coupled receptor 55 (Homo sapiens, UniProt Q9Y2T6); assay: SAR Analysis of Selective Antagonists of GPR55 using an Image-Based Assay - Set 3. [Related pubchem assays (depositor defined):AID2058, AID2079]; format: functional
[20] = target: G-protein coupled receptor 35 (Homo sapiens, UniProt Q9HC97); assay: SAR analysis of Antagonists of the GPR35 Receptor using an Image-Based Assay - Set 5. [Related pubchem assays (depositor defined):AID2058, AID2079]; format: functional
[21] = target: Protein phosphatase methylesterase 1 (Homo sapiens, UniProt Q9Y570); assay: PME-1 inhibitor potency by in-gel ABPP, dose response, selectivity assay for PME-1 inhibitor project, cell lysate, mouse brain cytosol, FP-rhodamine, panel member PME-1 Assay Panel member description: Inhibition of endogenously expressed PME-1 (AID 2366)
[22] = target: T3, Eukaryotic translation initiation factor 4H; assay: eIF4H inhibition in translation initiation, SAR follow-up (AID 435011); format: functional
[23] = target: T2, Polyadenylate-binding protein 1; assay: PABP inhibition in translation initiation, SAR follow-up (AID 435018); format: functional
[24] = target: Voltage-gated N-type calcium channel alpha-1B subunit/Amyloid beta A4 precursor protein-binding family A member 1 (Homo sapiens, UniProt Q00975+Q02410); assay: disruptors of Mint-PDZ/N-type channel peptide interaction – biochemical, HTRF, set 2, SAR follow-up (AID 434980); format: functional
Aspartyl aminopeptidase = Aspartyl aminopeptidase (Plasmodium falciparum 3D7, UniProt Q8I2J3)
Procathepsin L = Procathepsin L (Homo sapiens, UniProt P07711)
[25] = target: Potassium voltage-gated channel subfamily KQT member 2 (Rattus norvegicus, UniProt O88943); assay: retigabine-insensitive KCNQ2 potentiators, concentration-response, dose response, cell-based, retigabine-insensitive compounds (AID 2654); format: functional
Staphylococcus aureus = assay: Inhibitors of Bacterial Quorum Sensing Structure Activity Relationship (SAR) Analysis: Dose Response Assay. [Related pubchem assays: 700, 527 ]; format: functional, organism-based
[26] = target: T5, Neuropeptides B/W receptor type 1 (Homo sapiens, UniProt P48145); assay: GPR7 antagonist potency, late-stage follow-up, cell-based, fluorescence, dose response (AID 463251); format: functional
T5 sequence (P48145 whole entry): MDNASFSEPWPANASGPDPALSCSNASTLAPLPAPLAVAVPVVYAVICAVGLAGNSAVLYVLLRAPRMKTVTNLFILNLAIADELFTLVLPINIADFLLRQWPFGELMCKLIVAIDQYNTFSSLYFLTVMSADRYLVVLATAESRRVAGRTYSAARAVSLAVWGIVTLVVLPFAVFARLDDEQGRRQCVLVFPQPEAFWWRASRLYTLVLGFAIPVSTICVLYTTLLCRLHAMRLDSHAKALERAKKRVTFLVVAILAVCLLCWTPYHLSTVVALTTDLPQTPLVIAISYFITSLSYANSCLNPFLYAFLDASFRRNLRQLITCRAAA

[27] = target: Melanin-concentrating hormone receptor 1 (Homo sapiens, UniProt Q99705); assay: Late-stage fluorescence-based counterscreen for antagonists of the G-protein coupled receptor 7 (GPR7): cell-based dose response assay to identify antagonists of the melanin-concentrating hormone receptor 1 (MCHR1). [Related pubchem assays (depositor defined):AID1861, AID1880, AID1952, AID2148, AID2251, AID2257, AID485339]; format: functional;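 note: stimulated with 30 nM MCH peptide agonist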
Sequence of Melanin-concentrating hormone receptor 1 (Q99705 whole entry): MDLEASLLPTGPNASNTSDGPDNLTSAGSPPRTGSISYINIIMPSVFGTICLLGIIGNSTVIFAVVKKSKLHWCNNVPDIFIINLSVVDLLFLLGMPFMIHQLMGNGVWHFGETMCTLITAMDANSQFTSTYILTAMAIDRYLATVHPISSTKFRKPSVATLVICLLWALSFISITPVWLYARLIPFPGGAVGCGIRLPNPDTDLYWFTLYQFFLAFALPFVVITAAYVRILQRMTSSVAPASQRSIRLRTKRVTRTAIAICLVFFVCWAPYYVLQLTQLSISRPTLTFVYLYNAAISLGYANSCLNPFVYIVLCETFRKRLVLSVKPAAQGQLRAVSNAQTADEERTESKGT

T2 sequence (P11940 whole entry): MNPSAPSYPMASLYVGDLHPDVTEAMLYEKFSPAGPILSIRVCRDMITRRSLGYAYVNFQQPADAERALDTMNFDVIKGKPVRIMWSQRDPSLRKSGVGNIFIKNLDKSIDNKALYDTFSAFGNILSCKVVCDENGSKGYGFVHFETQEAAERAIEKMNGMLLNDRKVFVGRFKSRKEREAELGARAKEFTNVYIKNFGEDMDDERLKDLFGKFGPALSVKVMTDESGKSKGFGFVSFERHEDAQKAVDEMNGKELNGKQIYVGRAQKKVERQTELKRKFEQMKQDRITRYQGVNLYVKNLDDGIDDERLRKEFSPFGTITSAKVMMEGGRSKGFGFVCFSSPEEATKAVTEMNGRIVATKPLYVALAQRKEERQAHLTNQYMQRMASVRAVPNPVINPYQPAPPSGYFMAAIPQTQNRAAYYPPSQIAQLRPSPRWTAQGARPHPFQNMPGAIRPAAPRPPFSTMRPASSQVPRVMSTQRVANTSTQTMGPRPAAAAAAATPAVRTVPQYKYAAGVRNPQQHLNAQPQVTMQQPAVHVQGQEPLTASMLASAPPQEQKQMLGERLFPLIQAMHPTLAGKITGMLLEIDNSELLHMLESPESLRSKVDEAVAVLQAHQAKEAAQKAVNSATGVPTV
Sequence of Luciferin 4-monooxygenase (P08659 whole entry): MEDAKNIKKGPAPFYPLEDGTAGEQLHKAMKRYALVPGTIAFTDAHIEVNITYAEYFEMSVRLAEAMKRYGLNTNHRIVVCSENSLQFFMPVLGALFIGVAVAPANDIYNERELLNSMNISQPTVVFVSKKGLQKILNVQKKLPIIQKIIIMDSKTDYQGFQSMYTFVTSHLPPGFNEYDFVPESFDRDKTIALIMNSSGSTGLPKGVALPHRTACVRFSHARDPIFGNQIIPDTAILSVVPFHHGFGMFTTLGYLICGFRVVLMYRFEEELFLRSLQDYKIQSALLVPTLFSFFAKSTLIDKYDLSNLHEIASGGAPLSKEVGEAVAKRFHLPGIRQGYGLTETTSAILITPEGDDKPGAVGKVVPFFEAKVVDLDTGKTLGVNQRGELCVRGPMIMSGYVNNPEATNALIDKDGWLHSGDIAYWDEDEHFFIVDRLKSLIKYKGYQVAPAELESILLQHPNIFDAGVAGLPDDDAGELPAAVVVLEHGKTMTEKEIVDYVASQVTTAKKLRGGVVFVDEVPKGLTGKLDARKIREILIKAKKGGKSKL
Sequence of G-protein coupled receptor 55 (Q9Y2T6 whole entry): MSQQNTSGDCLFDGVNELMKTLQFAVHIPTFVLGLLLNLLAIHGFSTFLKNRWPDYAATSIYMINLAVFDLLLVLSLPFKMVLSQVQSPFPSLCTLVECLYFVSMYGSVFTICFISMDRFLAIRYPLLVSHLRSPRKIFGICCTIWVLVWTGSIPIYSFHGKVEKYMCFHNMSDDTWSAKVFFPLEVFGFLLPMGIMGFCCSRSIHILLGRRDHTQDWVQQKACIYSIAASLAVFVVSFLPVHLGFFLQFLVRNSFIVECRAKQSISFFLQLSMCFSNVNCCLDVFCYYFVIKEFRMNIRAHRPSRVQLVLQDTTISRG
Sequence of Aminopeptidase N (O96935 whole entry): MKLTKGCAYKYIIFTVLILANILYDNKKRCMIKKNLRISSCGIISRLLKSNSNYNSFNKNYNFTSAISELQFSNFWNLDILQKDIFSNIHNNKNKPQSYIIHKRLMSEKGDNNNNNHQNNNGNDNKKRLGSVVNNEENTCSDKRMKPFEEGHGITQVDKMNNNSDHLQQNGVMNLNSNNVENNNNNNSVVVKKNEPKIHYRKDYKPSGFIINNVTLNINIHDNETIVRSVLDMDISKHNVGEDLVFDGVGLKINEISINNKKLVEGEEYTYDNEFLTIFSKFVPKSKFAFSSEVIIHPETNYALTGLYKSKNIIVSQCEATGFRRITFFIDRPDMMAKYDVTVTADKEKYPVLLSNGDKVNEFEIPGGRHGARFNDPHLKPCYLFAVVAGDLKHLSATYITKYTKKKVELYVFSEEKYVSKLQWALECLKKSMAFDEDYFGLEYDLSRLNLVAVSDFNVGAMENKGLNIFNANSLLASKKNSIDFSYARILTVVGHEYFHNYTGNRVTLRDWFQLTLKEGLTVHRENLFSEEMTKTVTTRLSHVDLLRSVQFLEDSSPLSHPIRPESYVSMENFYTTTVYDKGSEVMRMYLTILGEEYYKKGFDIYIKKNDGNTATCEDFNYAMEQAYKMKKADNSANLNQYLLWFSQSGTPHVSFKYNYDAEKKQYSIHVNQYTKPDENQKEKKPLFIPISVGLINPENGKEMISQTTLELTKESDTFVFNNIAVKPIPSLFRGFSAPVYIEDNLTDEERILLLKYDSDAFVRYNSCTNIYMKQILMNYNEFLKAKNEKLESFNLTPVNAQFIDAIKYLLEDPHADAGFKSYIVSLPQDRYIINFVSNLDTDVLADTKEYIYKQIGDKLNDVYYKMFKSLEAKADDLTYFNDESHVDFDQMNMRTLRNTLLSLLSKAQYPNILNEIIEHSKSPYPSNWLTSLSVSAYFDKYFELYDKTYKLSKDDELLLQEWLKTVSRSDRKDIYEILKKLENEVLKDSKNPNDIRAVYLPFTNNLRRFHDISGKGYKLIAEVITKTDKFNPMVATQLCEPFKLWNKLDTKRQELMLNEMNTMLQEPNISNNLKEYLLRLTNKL
Sequence of Paired box protein Pax-8 (Q06710 whole entry): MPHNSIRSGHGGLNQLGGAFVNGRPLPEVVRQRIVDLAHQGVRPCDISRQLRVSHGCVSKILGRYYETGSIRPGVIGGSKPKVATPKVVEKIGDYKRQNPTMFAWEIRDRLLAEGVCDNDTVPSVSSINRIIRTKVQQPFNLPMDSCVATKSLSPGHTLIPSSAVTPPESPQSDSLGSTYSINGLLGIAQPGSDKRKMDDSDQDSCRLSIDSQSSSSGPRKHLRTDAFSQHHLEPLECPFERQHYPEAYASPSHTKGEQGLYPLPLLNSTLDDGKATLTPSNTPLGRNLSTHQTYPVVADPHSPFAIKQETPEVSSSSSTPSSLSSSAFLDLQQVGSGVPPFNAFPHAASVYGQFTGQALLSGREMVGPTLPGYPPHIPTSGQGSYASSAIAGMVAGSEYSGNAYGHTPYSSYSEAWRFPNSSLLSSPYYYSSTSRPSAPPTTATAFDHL
Sequence of G2/mitotic-specific cyclin-B1 (P14635 whole entry): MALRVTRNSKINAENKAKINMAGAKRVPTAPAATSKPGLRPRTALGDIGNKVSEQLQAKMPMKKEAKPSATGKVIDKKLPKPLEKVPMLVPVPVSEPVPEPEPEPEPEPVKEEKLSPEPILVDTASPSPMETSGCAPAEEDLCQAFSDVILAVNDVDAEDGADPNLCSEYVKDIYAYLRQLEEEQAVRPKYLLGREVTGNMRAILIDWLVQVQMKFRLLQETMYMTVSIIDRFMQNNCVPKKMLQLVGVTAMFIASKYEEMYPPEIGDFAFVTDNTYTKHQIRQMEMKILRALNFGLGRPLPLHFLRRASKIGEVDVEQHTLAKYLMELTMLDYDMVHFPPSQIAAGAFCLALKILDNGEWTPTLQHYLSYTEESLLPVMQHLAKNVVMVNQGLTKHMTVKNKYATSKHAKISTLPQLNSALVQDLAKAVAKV
Sequence of Cyclin-dependent kinase 5/CDK5 activator 1 (Q00535 whole entry): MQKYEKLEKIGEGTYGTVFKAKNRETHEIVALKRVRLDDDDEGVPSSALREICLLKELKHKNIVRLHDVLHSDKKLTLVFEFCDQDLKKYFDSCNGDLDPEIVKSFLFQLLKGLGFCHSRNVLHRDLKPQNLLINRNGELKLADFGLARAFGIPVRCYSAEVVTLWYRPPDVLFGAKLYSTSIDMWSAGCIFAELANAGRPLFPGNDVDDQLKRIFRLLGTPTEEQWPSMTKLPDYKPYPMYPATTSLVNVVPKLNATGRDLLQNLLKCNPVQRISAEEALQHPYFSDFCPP
Sequence of Cyclin-dependent kinase 5/CDK5 activator 1 (Q15078 whole entry, further chain): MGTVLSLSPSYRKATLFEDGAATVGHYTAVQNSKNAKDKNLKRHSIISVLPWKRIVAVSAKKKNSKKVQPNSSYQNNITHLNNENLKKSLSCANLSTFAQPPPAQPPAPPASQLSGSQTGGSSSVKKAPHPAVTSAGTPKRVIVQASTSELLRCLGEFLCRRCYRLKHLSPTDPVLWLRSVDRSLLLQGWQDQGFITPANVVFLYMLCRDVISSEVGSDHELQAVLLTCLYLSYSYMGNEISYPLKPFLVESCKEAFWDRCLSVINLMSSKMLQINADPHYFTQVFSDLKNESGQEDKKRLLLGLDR

For `COc1cc2c(cc1O)C[C@H]1c3c(cc(OC)c(O)c3-2)CCN1C` [ISOBOLDINE], the AC50 (Cytochrome P450 3A4) was 20 µM (inconclusive) and the AC50 (Cytochrome P450 2C9) was 25.1 µM (inconclusive).

With `Cc1ccc(C)c(NC(=O)C(Sc2nc3ccccc3c(=O)n2CC(C)C)c2ccccc2)c1` (stereo not drawn) the CC50 [1] was 21.3 µM (active), the IC50 (H9c2) was 36.3 µM (inactive) and the EC50 [2] was > 100 µM (not active).

For `Cc1nn(-c2cc(N3CCNCC3)ccc2[N+](=O)[O-])c(=O)c2ccccc12`, the EC50 [3] was > 50 µM (active).

In the case of `Cc1ccc(OCC(=O)Nc2cc(C)nn2-c2nc(C)cc(O)n2)cc1`, the EC50 (Wee1-like protein kinase) is reported as > 16.6 µM (active) and the EC50 [4] is reported as > 49.7 µM (inactive).

In the case of `C[N+]1(C)[C@@H]2CC[C@H]1CC(OC(=O)C(c1ccccc1)c1ccccc1)C2` (stereo partly drawn), the IC50 [5] is reported as 6.66 µM (active) and the IC50 [6] is reported as > 100 µM (inactive).

In the case of `Fc1ccccc1-c1nc(NCc2ccccc2)c2ccccc2n1`, the IC50 [7] is reported as > 50 µM (not active) and the IC50 [8] is reported as > 50 µM (not active).

For `COc1ccc(C(=O)NNC(=O)c2ccccn2)cc1`, the EC50 [9] was 1.11 µM (active), the AC50 [10] was 15.7 µM (active) and the EC50 [11] was 0.98 µM (active). The AC50 (Paired box protein Pax-8) was 7.51 µM (active), the EC50 [12] was 0.429 µM (active) and the AC50 [13] was 8.77 µM (active). For the same compound, the AC50 [14] was 14.2 µM (active) and the IC50 [15] was > 80 µM (inactive).

In the case of `CC(C)CCNC(=O)CSc1nc2ccsc2c(=O)n1NC(=O)c1ccccc1`, the IC50 (Aminopeptidase N) is reported as 87.1 µM (active).

For `N#CC(c1ccc(Cl)nn1)c1ccccc1Cl` (stereo not drawn), the AC50 [16] was 0.944 µM (active).

With `CC1(C)CC(=O)C(=Cc2cn(-c3ccccc3)nc2-c2ccccc2)C(=O)C1` the EC50 [17] was 20.7 µM (active) and the EC50 [18] was 33.9 µM (inactive).

In the case of `COC(=O)c1cnn(-c2ccc(F)cc2F)c1/C=N/NC(N)=S`, the IC50 [19] is reported as > 32 µM (inactive), the EC50 [11] is reported as > 112 µM (not active) and the EC50 [12] is reported as > 112 µM (not active). For the same compound, the IC50 [20] was > 32 µM (inactive).

With `CC(C)c1cc(C(C)C)c(S(=O)(=O)n2cccc2/C=C(\C#N)S(C)(=O)=O)c(C(C)C)c1` the IC50 [21] was > 20 µM (inactive).

For `Cc1nnc(NC(=O)CSc2ccc(-c3ccco3)nn2)s1`, the IC50 [22] was 6.17 µM (active) and the IC50 [23] was 64.1 µM (active).

For `O=C(c1cc(-c2ccco2)nc2ccccc12)N1CCC(N2CCCC2)CC1`, the IC50 [24] was > 56.8 µM (inactive).

In the case of `CC(C)(C)c1ccc(O)c(/N=C/c2cc(Br)ccc2O)c1`, the IC50 (Aspartyl aminopeptidase) is reported as 0.807 µM (active) and the IC50 (Procathepsin L) is reported as > 59.6 µM (not active).

For `O=C(Nc1cccc(F)c1)Nc1cncc(F)c1`, the EC50 [25] was 6.32 µM (active).

With `O=C(NCC(c1cccnc1)N1CCN(c2ccccc2F)CC1)c1cccc(Cl)c1` (stereo not drawn) the IC50 (Staphylococcus aureus) was 0.597 µM (active).

For `COc1nn(-c2cccc(C)c2)c(=O)c(Cl)c1Cl`, the IC50 [26] was 5.4 µM (active) and the IC50 [27] was 3.1 µM (active).
